Laboratory results published in BindingDB's records for PubMed 33822624 (Ocean University of China, 2021).

Target: TCF7L2 (Homo sapiens)
Test: Inhibition of beta-catenin/Tcf4 (unknown origin) in human SW480 cells assessed as reduction in cyclin D1 level qRT-PCR analysis

IC50: 4.2 µM
Compound: CC[C@H](C)[C@H](NC(=O)[C@H]1Cc2cn(nn2)CCCC[C@H](NC(=O)[C@H](CC(C)C)NC(=O)[C@H](CO)NC(=O)[C@H](CCCNC(=N)N)NC(=O)[C@H](CCC(=O)O)NC(=O)[C@H](CCCNC(=N)N)NC(=O)[C@H](Cc2cnc[nH]2)NC(=O)[C@H]2Cc3cn(nn3)CCCC[C@H](NC(=O)[C@H](CO)NC(=O)[C@H](CC(C)C)NC(C)=O)C(=O)N[C@@H](CCC(=O)O)C(=O)N[C@@H](CCC(N)=O)C(=O)N[C@@H](CC(C)C)C(=O)N2)C(=O)N[C@@H]([C@@H](C)O)C(=O)N[C@@H](CC(C)C)C(=O)N[C@@H](CCCNC(=N)N)C(=O)N1)C(=O)N[C@@H](CCC(N)=O)C(=O)N[C@@H](CCCNC(=N)N)C(=O)N[C@@H](CC(C)C)C(=O)N[C@@H](CC(C)C)C(=O)N[C@@H](Cc1ccccc1)C(N)=O
